Data published in US12440529B2, “Topical Croton lechleri compositions and their use in the treatment of a bacterial colonization or primary or secondary bacterial infection of an underlying skin disorder” (ALPHYN BIOLOGICS, INC., priority 2020, dated 2025).
In brackets after ≈: the same amount, converted by molar mass. Where two headings read alike, the source gives them in different places. One block for each compound: values may come before it.

Tests used:
cells = settings: Chen, Planta Med. 60 (1994); compounds obtained through extraction; cited from earlier work
[1] = system: S. pyogenes (Erythromycin and Tetracycline resistant strains); assay: MIC/MBC assay (2-fold microdilution, CAMHB with […] laked horse blood); assay type: cell-based; settings: Streptococcus pyogenes, read-out: MIC
Experimental: (§1) Tables 26 and 27 show an assay whose setup is same as what was used for screening S. aureus and P. aeruginosa (i.e. 2-fold microdilution). The 20 strains of S. pyogenes assayed were selected from the two rounds of antibiotic screening to identify Erythromycin and Tetracycline resistant strains. […] For this feasibility study, AB-101 Lot 1 and Lot 2 was used. P. aeruginosa ATCC 27853 was tested as a positive control for AB-101 activity.

Pseudomonas aeruginosa = assay: In vitro MIC/MBC assay (2-fold microdilution), multi-drug resistant strain panel; assay type: cell-based
Source text: Of the 20, 5 are known to be Verona integron-encoded metallo-beta-lactamase (VIM)—producing Pseudomonas aeruginosa which are drug resistant strains of Pseudomonas aeruginosa, another 5 are know to be Klebsiella pneumoniae carbapenemase (KPC) producing Pseudomonas aeruginosa strains which are drug resistant strains of Pseudomonas aeruginosa, and 4 are known to be IMP-Type Metallo-β-Lactamase (IMP))—producing Pseudomonas aeruginosa which are drug resistant strains of Pseudomonas aeruginosa. The 6 remaining strains are known to be antibiotic resistant and are listed simply as MDR strains. […]

[2] = system: MRSA strains (Mupirocin-resistant and Mupirocin-susceptible); assay: In vitro MIC/MBC assay (2-fold microdilution), S. aureus strain panel; assay type: cell-based, Staphylococcus aureus; settings: Staphylococcus aureus
Experimental: (§2) AB-101 was tested against an extensive variety of bacterial strains, including Mupirocin-resistant MRSA, Mupirocin-resistant MSSA, Mupirocin-susceptible MSSA, Mupirocin-susceptible MRSA, and other skin-related pathogens.
(§3) Measures included the minimum inhibitory concentration (MIC) which is the lowest concentration of AB-101 that prevents visible growth of the bacterium or pathogen, and minimum bactericidal concentration (MBC) which is the lowest concentration of an antibacterial agent required to kill a bacterium.
(§4) AB-101 Lots 01, 02 and a purified extract of taspine for MIC are compared. […] Taspine may have additional synergistic benefits to be included in the whole extract in the final product for the effective treatment of a bacterial colonization or primary or secondary bacterial infection of an underlying skin disorder.
as §4, with “taspine for MBC are compared.” for “taspine for MIC are compared.”, “treatment of bacterial colonization” for “treatment of a bacterial colonization”
as §1

[3] = system: MSSA strains (Mupirocin-resistant and Mupirocin-susceptible; QC ATCC 29213); assay: as above; assay type: cell-based, Staphylococcus aureus
Experimental: as §2, §3, §4
as §4, with “taspine for MBC are compared.” for “taspine for MIC are compared.”, “treatment of bacterial colonization” for “treatment of a bacterial colonization”
as §1

[4] = Staphylococcus aureus, strain CDC 461, MupirocinS, MSSA
[5] = Staphylococcus aureus, strain CDC 461; MupirocinS, MSSA

Structure (SMILES): Oc1cc(O)c2c(c1)O[C@H](c1ccc(O)c(O)c1)[C@@H](O)C2 [Catechin, catechin]
- effect on cell proliferation (cells): little effect

- MIC ([1]; S. pyogenes strain 1744264): 2 µg/mL (≈ 2.73 µM)
- MIC ([1]; S. pyogenes strain 1744265): > 16 µg/mL
- MIC ([1]; S. pyogenes strain 1744271): > 16 µg/mL
- MIC ([1]; S. pyogenes strain 1744272): > 16 µg/mL
- MIC ([1]; S. pyogenes strain 1744275): > 16 µg/mL
- MIC ([1]; S. pyogenes strain 1744277): 0.5 µg/mL (≈ 0.681 µM)
- MIC ([1]; S. pyogenes strain 1744285): > 16 µg/mL
- MIC ([1]; S. pyogenes strain 2065754): > 16 µg/mL
- MIC ([1]; S. pyogenes strain 2065755): 2 µg/mL (≈ 2.73 µM)
- MIC ([1]; S. pyogenes strain 2065756): 2 µg/mL (≈ 2.73 µM)
- MIC ([1]; S. pyogenes strain 2065757): > 16 µg/mL
- MIC ([1]; S. pyogenes strain 2065759): 4 µg/mL (≈ 5.45 µM)
- MIC ([1]; S. pyogenes strain 2065760): 2 µg/mL (≈ 2.73 µM)
- MIC ([1]; S. pyogenes strain 2065761): > 16 µg/mL
- MIC ([1]; S. pyogenes strain 2065762): 2 µg/mL (≈ 2.73 µM)
- MIC ([1]; S. pyogenes strain 2065763): 2 µg/mL (≈ 2.73 µM)
- MIC ([1]; S. pyogenes strain 2065765): > 16 µg/mL
- MIC ([1]; S. pyogenes strain 20658748): 2 µg/mL (≈ 2.73 µM)
- MIC ([1]; S. pyogenes strain 20658749): 1 µg/mL (≈ 1.36 µM)
- MIC ([1]; S. pyogenes strain 20658750): 1 µg/mL (≈ 1.36 µM)
Structure (SMILES): CC[C@H]1OC(=O)[C@H](C)[C@@H](O[C@H]2C[C@@](C)(OC)[C@@H](O)[C@H](C)O2)[C@H](C)[C@@H](O[C@@H]2O[C@H](C)C[C@H](N(C)C)[C@H]2O)[C@](C)(O)C[C@@H](C)C(=O)[C@H](C)[C@@H](O)[C@]1(C)O [Erythromycin]

- MIC (Pseudomonas aeruginosa; ATCC27853, strain ATCC 27853, QC strain): 2 µg/mL (≈ 6.68 µM)
- MIC (Pseudomonas aeruginosa; strain CDC 0064, MDR): > 64 µg/mL
- MIC (Pseudomonas aeruginosa; strain CDC 0092, IMP): > 64 µg/mL
- MIC (Pseudomonas aeruginosa; strain CDC 0103, IMP): > 64 µg/mL
- MIC (Pseudomonas aeruginosa; strain CDC 0230, VIM): > 64 µg/mL
- MIC (Pseudomonas aeruginosa; strain CDC 0231, KPC): > 64 µg/mL
- MIC (Pseudomonas aeruginosa; strain CDC 0239, VIM): > 64 µg/mL
- MIC (Pseudomonas aeruginosa; strain CDC 0241, IMP): > 64 µg/mL
- MIC (Pseudomonas aeruginosa; strain CDC 0246, MDR): > 64 µg/mL
- MIC (Pseudomonas aeruginosa; strain CDC 0250, MDR): > 64 µg/mL
- MIC (Pseudomonas aeruginosa; strain CDC 0254, VIM): > 64 µg/mL
- MIC (Pseudomonas aeruginosa; strain CDC 0255, VIM): > 64 µg/mL
- MIC (Pseudomonas aeruginosa; strain CDC 0353, MDR): 16 µg/mL (≈ 53.4 µM)
- MIC (Pseudomonas aeruginosa; strain CDC 0356, KPC): > 64 µg/mL
- MIC (Pseudomonas aeruginosa; strain CDC 0357, MDR): 16 µg/mL (≈ 53.4 µM)
- MIC (Pseudomonas aeruginosa; strain CDC 0439, IMP): > 64 µg/mL
- MIC (Pseudomonas aeruginosa; strain CDC 0441, KPC): > 64 µg/mL
- MIC (Pseudomonas aeruginosa; strain CDC 0508, MDR): 16 µg/mL (≈ 53.4 µM)
- MIC (Pseudomonas aeruginosa; strain CDC 0509, VIM): > 64 µg/mL
- MIC (Pseudomonas aeruginosa; strain CDC 0516, KPC): > 64 µg/mL
- MIC (Pseudomonas aeruginosa; strain CDC 0518, KPC): > 64 µg/mL
Structure (SMILES): C[C@@H](O)[C@H]1C(=O)N2C(C(=O)O)=C(SCCN=CN)C[C@H]12 [Imipenem]

- MIC ([2]; strain 1674607, MupirocinR): > 64 µg/mL
- MIC ([2]; strain 1674611, MupirocinR): 64 µg/mL
- MIC ([2]; strain CDC 218, MupirocinR): > 64 µg/mL
- MIC ([2]; strain CDC 224, MupirocinR): > 64 µg/mL
- MIC ([2]; strain CDC 227, MupirocinS): 64 µg/mL
- MIC ([2]; strain CDC 228, MupirocinR): 64 µg/mL
- MIC ([2]; strain CDC 480, MupirocinS): 32 to 64 µg/mL
- MIC ([2]; strain CDC 481, MupirocinS): 16 to 32 µg/mL
- MIC ([2]; strain CDC 482, MupirocinS): 8 to 32 µg/mL
- MIC ([2]; strain CDC 483, MupirocinS): 64 µg/mL
- MIC ([3]; Staphylococcus aureus, strain 1674606, MupirocinR, MSSA): 2 to 8 µg/mL
- MIC ([3]; Staphylococcus aureus, strain 1674606; MupirocinR, MSSA): 2 to 8 µg/mL
- MIC ([3]; Staphylococcus aureus, strain 1674608, MupirocinR, MSSA): 2 to 4 µg/mL
- MIC ([3]; Staphylococcus aureus, strain 1674608; MupirocinR, MSSA): 2 to 4 µg/mL
- MIC ([3]; Staphylococcus aureus, strain ATCC 29213, QC control): 1 to 2 µg/mL
- MIC ([3]; Staphylococcus aureus, strain ATCC 29213; QC control): 1 to 2 µg/mL
- MIC [3, 4]: 4 to 8 µg/mL
- MIC [3, 5]: 4 to 8 µg/mL
- MIC ([3]; Staphylococcus aureus, strain CDC 462, MupirocinS, MSSA): 8 µg/mL
- MIC ([3]; Staphylococcus aureus, strain CDC 462; MupirocinS, MSSA): 8 µg/mL
- MIC ([3]; Staphylococcus aureus, strain CDC 463, MupirocinS, MSSA): 8 to 16 µg/mL
- MIC ([3]; Staphylococcus aureus, strain CDC 463; MupirocinS, MSSA): 8 to 16 µg/mL
- MIC ([3]; Staphylococcus aureus, strain CDC 464, MupirocinS, MSSA): 2 µg/mL
- MIC ([3]; Staphylococcus aureus, strain CDC 464; MupirocinS, MSSA): 2 µg/mL
- MIC ([3]; Staphylococcus aureus, strain CDC 484, MupirocinS, MSSA): 2 µg/mL
- MIC ([3]; Staphylococcus aureus, strain CDC 484; MupirocinS, MSSA): 2 µg/mL
- MIC ([3]; Staphylococcus aureus, strain CDC 485, MupirocinS, MSSA): 2 to 4 µg/mL
- MIC ([3]; Staphylococcus aureus, strain CDC 485; MupirocinS, MSSA): 2 to 4 µg/mL
Structure (SMILES): COc1cccc(OC)c1C(=O)N[C@@H]1C(=O)N2[C@@H]1SC(C)(C)[C@@H]2C(=O)O [Methicillin]

- MIC [3, 4]: 0.25 to 1 µg/mL
- MIC [3, 5]: 0.25 to 1 µg/mL
- MIC ([1]; S. pyogenes strain 1744264): 0.25 µg/mL (≈ 0.499 µM)
- MIC ([1]; S. pyogenes strain 1744265): 0.5 µg/mL (≈ 0.999 µM)
- MIC ([1]; S. pyogenes strain 1744271): 0.5 µg/mL (≈ 0.999 µM)
- MIC ([1]; S. pyogenes strain 1744272): 0.25 µg/mL (≈ 0.499 µM)
- MIC ([1]; S. pyogenes strain 1744275): ≤ 0.125 µg/mL
- MIC ([1]; S. pyogenes strain 1744277): ≤ 0.125 µg/mL
- MIC ([1]; S. pyogenes strain 1744285): ≤ 0.125 µg/mL
- MIC ([1]; S. pyogenes strain 2065754): ≤ 0.125 µg/mL
- MIC ([1]; S. pyogenes strain 2065755): ≤ 0.125 µg/mL
- MIC ([1]; S. pyogenes strain 2065756): ≤ 0.125 µg/mL
- MIC ([1]; S. pyogenes strain 2065757): ≤ 0.125 µg/mL
- MIC ([1]; S. pyogenes strain 2065759): ≤ 0.125 µg/mL
- MIC ([1]; S. pyogenes strain 2065760): ≤ 0.125 µg/mL
- MIC ([1]; S. pyogenes strain 2065761): ≤ 0.125 µg/mL
- MIC ([1]; S. pyogenes strain 2065762): ≤ 0.125 µg/mL
- MIC ([1]; S. pyogenes strain 2065763): ≤ 0.125 µg/mL
- MIC ([1]; S. pyogenes strain 2065765): ≤ 0.125 µg/mL
- MIC ([1]; S. pyogenes strain 20658748): ≤ 0.125 µg/mL
- MIC ([1]; S. pyogenes strain 20658749): ≤ 0.125 µg/mL
- MIC ([1]; S. pyogenes strain 20658750): ≤ 0.125 µg/mL
Structure (SMILES): C/C(=C\C(=O)OCCCCCCCCC(=O)O)C[C@@H]1OC[C@H](C[C@@H]2O[C@H]2[C@@H](C)[C@H](C)O)[C@@H](O)[C@H]1O [Mupirocin]

Structure (SMILES): CN(C)[C@@H]1C(O)=C(C(N)=O)C(=O)[C@@]2(O)C(O)=C3C(=O)c4c(O)cccc4[C@@](C)(O)[C@H]3C[C@@H]12 [Tetracycline]
- MIC ([1]; S. pyogenes strain 1744264): 0.25 µg/mL (≈ 0.563 µM)
- MIC ([1]; S. pyogenes strain 1744265): 8 µg/mL (≈ 18 µM)
- MIC ([1]; S. pyogenes strain 1744271): 16 µg/mL (≈ 36 µM)
- MIC ([1]; S. pyogenes strain 1744272): 8 µg/mL (≈ 18 µM)
- MIC ([1]; S. pyogenes strain 1744275): 0.25 µg/mL (≈ 0.563 µM)
- MIC ([1]; S. pyogenes strain 1744277): 0.25 µg/mL (≈ 0.563 µM)
- MIC ([1]; S. pyogenes strain 1744285): > 16 µg/mL
- MIC ([1]; S. pyogenes strain 2065754): 16 µg/mL (≈ 36 µM)
- MIC ([1]; S. pyogenes strain 2065755): > 16 µg/mL
- MIC ([1]; S. pyogenes strain 2065756): > 16 µg/mL
- MIC ([1]; S. pyogenes strain 2065757): 16 µg/mL (≈ 36 µM)
- MIC ([1]; S. pyogenes strain 2065760): > 16 µg/mL
- MIC ([1]; S. pyogenes strain 2065762): > 16 µg/mL
- MIC ([1]; S. pyogenes strain 2065765): 2 to 4 µg/mL (≈ 4.5 to 9 µM)
- MIC ([1]; S. pyogenes strain 20658748): 16 µg/mL (≈ 36 µM)
- MIC ([1]; S. pyogenes strain 20658749): 16 µg/mL (≈ 36 µM)
- MIC ([1]; S. pyogenes strain 20658750): > 16 µg/mL
